Results published in patent publication US11957671B2, “Benzodioxane modulators of leukotriene A4 hydrolase (LTA4H) for prevention and treatment of aging-associated diseases” (Alkahest, Inc., priority 2021, dated 2024).

Legend:
mice = details: previous studies; cited from earlier work
[1] = tested on: hippocampal neurons of aged C57BL/6 mice; experiment: Single cell RNA sequencing of NeuN+ hippocampal nuclei (CA1, DG); type: in vivo, mouse
Method: Aged C57BL/6 mice (21 months of age) were treated for 1 month bid po with vehicle, 1 mg/kg Compound 1, or 2.5 mg/kg SC57461A (n=3 mice per treatment group). NucSeq For Mouse Brain Tissue protocol from 10× Genomics was used to isolate mouse hippocampus nuclei. Approximately 65 mg of brain tissue were used per treatment. Nonidet P40 was used to lyse cell walls and isolated nuclei were stained with Draq5 and NeuN antibodies for FACS sorting. Approximately 5,000 nuclei were collected for each sample. Eight samples were collected for each treatment for a total of 40,000 nuclei per treatment. These samples were prepped for sequencing using the 10× Genomics Chromium Next GEM kit.
GO terms are generated using the g:Profiler Web server (https://bitt.cs.ut.ee/gprofiler) to analyze differential regulated gene lists. Reported are the top 20 gene ontology (GO terms) terms from the biological process category, sorted by significance as determined by P-value. This list was filtered to report significant GO terms that include less than 1000 genes.

aged C57BL/6 mice [2] = experiment: Long term potentiation (LTP) in hippocampal slices; type: in vivo, mouse; details: 1 month bid po, 1 mg/kg Compound 1 or 2.5 mg/kg SC57461A
Method: Aged C57BL/6 mice (21 months of age) were treated for 1 month bid po with vehicle, 1 mg/kg Compound 1, or 2.5 mg/kg SC57461A (n=5 mice per treatment group). Electrophysical recordings were performed at AfaSci, Inc, as follows. Animals were deeply anesthetized with halothane and decapitated. The brain was quickly taken out and placed into ice-cold artificial cerebrospinal fluid (ACSF) that was continuously bubbled with 5% CO2/95% O2. The ACSF was composed of (in mM) NaCl 130.0, KCl 2.5, KH2PO4 1.2, CaCl2 2.4, MgSO4 1.3, NaHCO326.0 and glucose 10.0 (pH 7.4). Hippocampal slices (400 μm thick) were prepared using a tissue slicer (Stoelting Co., IL) and incubated at room temperature in continuously oxygenated ACSF for at least 1 h before being recorded with submerged mode in chamber (Harvard Apparatus) at room temperature. Data were collected with an Axopatch-2B amplifier and pClamp 10.4 program (Axon Instruments) through digidata 1320A.
Field population spike (PS) was recorded using glass microelectrode filled with ACSF (resistance: 1-3 MO). Biphasic current pulses (0.2 ms duration for one phase, 0.4 ms in total) were delivered in 10 s intervals through a concentric bipolar stimulating electrode (FHC, Inc.). […] To record field population spikes in dorsal dentate gyrus, the stimulating electrode was placed on the hippocampal fissure to stimulate the bypassing perforant pathway fibers and the recording electrode was placed on inner part of granular cell layer. To record field EPSPs in DG, the stimulating electrode was placed on the hippocampal fissure to stimulate the bypassing perforant pathway fibers and the recording electrode was placed on inner part of granular cell layer. Slices were recorded within 8 hours after dissection. Titanic stimulation consisted of 2 trains of 100 pulses (0.4 ms bipolar pulse duration, 100 Hz) lasting for 1 second with 5 seconds of interval. The slope of EPSP and amplitude of population spike were measured from the initial phase of negative wave with Clampfit10.4. Each data point was measured with average of 3 consecutive traces. LTP was plotted as the percentage to baseline following high frequency stimulation (mean±SEM).

[3] = tested on: purified endothelial cells from the brains of aged C57BL/6 mice; experiment: Microbulk qPCR of endothelial genes; type: in vivo, mouse; details: 1 month bid P.O., 1 mg/kg Compound 1 or 2.5 mg/kg SC57461A
Method: (§1) Downregulation of the detrimental genes Bsg, Gbp4, and CXCL12 in purified endothelial cells from the brains of mice treated with LTA4H inhibitors Compound 1 or SC57461A were compared to those of vehicle treated mice. Gene expression was measured by qPCR from 500 sorted endothelial cells and was normalized to GAPDH control.
Aged C57BL/6 mice (21 months of age) were treated for 1 month bid P.O. with vehicle, 1 mg/kg Compound 1, or 2.5 mg/kg SC57461A (n=3 mice per treatment group). One cortical cap (cortex and hippocampus) from each mouse was isolated and cells were dissociated using Miltenyi Neutral Dissociation Kit (#130-092-628). Cells were sorted using Sony Multi-Application Cell Sorter MA900 into clean, RNAase free 200 uL PCR strip tube with 5 uL RNAlater at a concentration of 500 cells per tube. RNA was isolated follow kit protocol for Qiagen RNeasy Micro Kit (#74004). cDNA was synthesized using SuperScript III Kit Protocol and qPCR assays were run using TaqMan or SYBR green primers.
as §1, with “beneficial gene, Plat,” for “detrimental genes Bsg, Gbp4, and CXCL12”

aged C57BL/6 mice [4] = experiment: Unbiased single cell RNA sequencing of brain tissue; type: in vivo, mouse; details: 2.5 mg/kg bid P.O. 1 month
Method: Aged C57BL/6 mice (21 months of age) were treated for 1 month bid P.O. with vehicle or 2.5 mg/kg SC57461A (n=3 mice per treatment group). One cortical cap (cortex and hippocampus) from each mouse was isolated and cells were dissociated and sorted using Sony Multi-Application Cell Sorter MA900. Unbiased RNA sequencing from single brain cells were analyzed according to techniques described previously (Yousf H, et al., Bio Protoc., 8(22):e3091 (2018), which is herein incorporated by reference in its entirety).

[5] = tested on: brain endothelial cells of aged C57BL/6 mice; experiment: Single cell RNA sequencing of brain endothelial cells (BECs); type: in vivo, mouse
Method: Male C57BL/6 mice aged 20-21 months were treated with Vehicle or SC-57461A commercially available LTA4H inhibitor. The mice were dosed with SC-57461A at 2.5 mg/kg PO bid for one month. Mice were anesthetized and blood and tissues were collected for further analysis. Blood was collected via cardiac puncture in syringes pre-filled with Heparin. Brains were collected following ACSF perfusion and processed for single cell RNA sequencing of labeled endothelial cells.
Brain endothelial cells (BECs) were sorted, sequenced, and analyzed based on techniques known to those having ordinary skill in the art. […] Gates were determined to separate CD31-positive, CD11b-negative endothelial cells from CD11b-positive, CD31-negative microglia. […]
Aged C57BL/6 mice (21 months of age) were treated for 1 month bid P.O. with vehicle, 1 mg/kg Compound 1, or 2.5 mg/kg SC57461A (n=3 mice per treatment group). Brain endothelial cells were sorted, sequenced and analyzed as described in Example 12 (See Chen M B, et al., Cell Rep, 30(13):4418-32e4 (2020) which is herein incorporated by reference in its entirety).
GO terms are generated using the g:Profiler Web server (https://bitt.cs.ut.ee/gprofiler) to analyze differential regulated gene lists. Reported are the top 20 gene ontology (GO terms) terms from the biological process category, sorted by significance as determined by P-value. […]

aged mice = experiment: CA1 synapse density by histology; type: in vivo, mouse; details: preliminary data, pre- and post-synaptic protein staining
[6] = 1 month bid po, 1 mg/kg Compound 1 or 2.5 mg/kg SC57461A

## CN(CCCOc1ccc(Cc2ccccc2)cc1)CCC(=O)O.Cl [SC-57461A, reference compound]
mice
  memory domains improved: only improved spatial memory
[1]; [6]
  CA1 neuronal gene changes: many significant gene changes to neurons in the CA1 region of the hippocampus
  DG neuronal gene changes: many significant gene changes to neurons in the DG region of the hippocampus
  Dcc gene expression in the dentate gyrus: not significantly impacted
  Spock3 gene expression in the dentate gyrus: not significantly impacted
[1]; long-term treatment
  Biological Process GO terms, CA1 hippocampal neurons: changes to synapses
  Biological Process GO terms, DG hippocampal neurons: changes to synapses
Aged C57BL/6 mice [2]
  LTP, CA1 region of the hippocampus: did not show the same LTP increase
  LTP, DG region of the hippocampus: did not show the same LTP increase
[3]
  Bsg gene expression: down regulation of Bsg gene expression
  CXCL12 gene expression: down regulation of CXCL12 gene expression
  Gpb4 gene expression: down regulation of Gpb4 gene expression
  Plat gene expression: up regulation of Plat gene expression
Aged C57BL/6 mice [4]
  Biological Process GO terms, astrocytes: changes to astrocytes
  Biological Process GO terms, endothelial: changes to endothelial
  Biological Process GO terms, pericytes: changes to pericyte
  astrocyte gene changes: many significant gene changes to astrocytes
  endothelial cell gene changes: many significant gene changes to brain endothelial cells
  pericyte gene changes: many significant gene changes to pericytes
[5]; 2.5 mg/kg PO bid one month
  Biological Process GO terms, BECs: changes to the endothelial milieu
[5]; 2.5 mg/kg bid P.O. 1 month
  endothelial cell gene changes, enriched brain endothelial cells: many significant gene changes to brain endothelial cells
Aged mice
  synapse density in the CA1 region of the hippocampus: no trend in increased CA1 synapse density
